Experimental findings from patent US12366579B2, “Sulfur-heterocycle exchange chemistry and uses thereof” (University of Virginia Patent Foundation, priority 2019, dated 2025) are described below.

The test system of series [1] is HEK293T soluble proteomes. As to the kind of experiment: LC-MS chemical proteomics of probe-modified sites in cell proteomes. In kind it is binding, human. The protocol: Proteomes were diluted to 2.3 mg/mL in PBS and sample aliquots (432 μL) were treated with sulfonyl-triazole or -fluoride probes at the indicated concentrations (5 μL, 100× stock in DMSO), mixed gently and incubated for 1 h at room temperature. Probe-modified proteomes were subjected to CuAAC conjugation to desthiobiotin-PEG3-azide (10 μL of 10 mM stock in DMSO; final concentration of 200 μM) using TCEP (10 μL of fresh 50 mM stock in water; 1 mM final concentration), TBTA ligand (33 μL of a 1.7 mM 4:1 t-butanol/DMSO stock, 100 μM final concentration), and CuSO4 (10 μL of 50 mM stock, 1 mM final concentration). Samples were mixed by vortexing and then incubated for 1 h at room temperature. Excess reagents were removed by chloroform-methanol extraction as previously described^51. Protein pellets were re-suspended in 500 μL of 6M urea/25 mM ammonium bicarbonate followed by DTT reduction and IAA alkylation as previously described^5. Excess reagents were removed by chloroform/methanol extraction as described above, and the protein pellet was re-suspended in 500 μL of 25 mM ammonium bicarbonate and then digested to peptides using trypsin/Lys-C (7.5 μg in 15 μL of ammonium bicarbonate, sequencing grade from Promega, Madison, Wisconsin, United States of America) was added to the mixture and incubated for 3 hrs at 37° C. Probe-modified peptides were enriched by avidin affinity chromatography, eluted, and prepared for LC-MS analysis as previously described^51.
A top 10 data-dependent acquisition MS method was used.
Sulfonyl-probe modifications of tyrosine, lysine, and other amino acids were included as a variable (common) modification of +635.27374 Da. […] A Byonic score of 300 was applied for a more inclusive initial evaluation of the search results and thereby consider more possible probe-modified sites. MS1 and MS2 spectra corresponding to the highest-scoring tyrosine- and lysine (internal or non-C terminal)-modified sequences (˜50-100 peptides) were manually verified. […] Distinct peptides containing probe-modified amino acid residues (termed sites) were determined by identifying all unique razor protein and site combinations across all of the proteomes tested.
To compare amino acid residues modified by sulfonyl probes, protein and peptide identifications were accomplished as described above with variable (common) modification of +635.27374 Da on the following amino acid residues: cysteine, aspartic acid, glutamic acid, histidine, lysine, methionine, asparagine, glutamine, arginine, serine, threonine, tryptophan, and tyrosine. For these amino acid comparisons, carbamidomethylation (+57.021464 Da) of cysteines was searched as a variable/common modification to allow for the potential of probe modification on cysteines. Comparisons of probe-modified sites across all probes and cell lines tested were performed using the R package ggplot2 (online at tidyverse.org). Venn diagrams for comparisons were generated using the VennDiagram R package^52.
Proteomes were digested with trypsin protease and desthiobiotin-modified peptides enriched by avidin affinity chromatography, released, and analyzed by high-resolution liquid chromatography-mass spectrometry (LC-MS). Probe-modified peptide-spectrum matches (PSMs) that met a quality control confidence criteria of ≥300 Byonic score^31 and ≤5 ppm mass accuracy were selected for further manual evaluation.

Series [2] can be described thus: HPLC reactivity assay with glutathione (GSH stability). The class given is physicochemical. As to conditions: 5×GSH, basic conditions (TMG). Here is the method: Glutathione (GSH) adduction to compounds is a mechanism of metabolism for compounds administered to animals and humans. Accordingly, an HPLC reactivity assay^72 was performed to evaluate whether sulfonyl-triazoles (HHS-475) react with GSH. HHS-475 (see Example 1) was used as an exemplary SuTEx compound. Initially, the HPLC assay was used to monitor the rapid reaction of HHS-475 with the model nucleophile p-cresol (as a mimic of the tyrosine side chain) under basic conditions (TMG). […] The 5×GSH was used because GSH is typically found at high concentrations in vivo.

Series [3] has as its system HEK293T, Jurkat cells. Description: Live cell chemical proteomic profiling with SuTEx probes. In kind it is cell-based, human. The settings on record: 100 μM, 2 hr, 37° C.; membrane and soluble fractions; both probes. The protocol: Cells grown to ˜90% confluency in 10 cm plates were treated with DMSO vehicle or sulfonyl-triazole probe (10 μL of 1000×DMSO stock) in serum-free media for the indicated concentrations and times at 37° C. with 5% CO2. After treatment, cells were washed with cold PBS twice before harvesting and preparation for gel-based chemical proteomic evaluation as described above. For LC-MS studies, protein concentrations were normalized to 2.3 mg/mL and 432 μL (for 1 mg final protein amount) were used for sample preparation as detailed below.
Proteomes were diluted to 2.3 mg/mL in PBS and sample aliquots (432 μL) were treated with sulfonyl-triazole or -fluoride probes at the indicated concentrations (5 μL, 100× stock in DMSO), mixed gently and incubated for 1 h at room temperature. Probe-modified proteomes were subjected to CuAAC conjugation to desthiobiotin-PEG3-azide (10 μL of 10 mM stock in DMSO; final concentration of 200 μM) using TCEP (10 μL of fresh 50 mM stock in water; 1 mM final concentration), TBTA ligand (33 μL of a 1.7 mM 4:1 t-butanol/DMSO stock, 100 μM final concentration), and CuSO4 (10 μL of 50 mM stock, 1 mM final concentration). Samples were mixed by vortexing and then incubated for 1 h at room temperature. Excess reagents were removed by chloroform-methanol extraction as previously described^51. […]

The nature of series [4]: HPLC assay, n-butylamine reactivity against a sulfonyl probe mixture. In kind it is physicochemical. The settings on record: TMG 3.3 equivalents. Here is the method:
The following reagents were prepared and kept at 0° C. prior to use: 0.1 M solution of caffeine in acetonitrile (ACN), 1.0 M solution of n-butylamine, p-cresol, tetramethylguanidine (TMG), acetic acid in ACN, and 10 mM solution of the probes in a mixture of DMF-ACN (v/v=10:90) are made.
(ii) n-Butylamine reactivity against a probe mixture: Reactivity of sulfonyl probes against n-butylamine (3.3 eq) was performed as described above except the amount of TMG was fixed at 3.3 eq.

In the case of `C#CCNC(=O)c1ccc(S(=O)(=O)n2cncn2)cc1` [HHS-475, 4-((1H-1,2,4-Triazol-1-yl)sulfonyl)-N-(prop-2-yn-1-yl)benzamide], in series [1] (FIG. 4D), the “unique-modified tyrosine sites among 1,2,4-SuTEx probes” value came out at 391 sites. Further, the “tyrosine specificity, Y/K ratio of modified sites” value in series [1] (LC-MS chemical proteomics, FIG. 4A) was 2.8. Moreover, the “reaction with GSH” value in series [2] is reported as “negligible reaction”. Moreover, the “distinct tyrosine sites measured in live cell studies, in total per cell line” value in series [3] was ~3,500 sites. The “time to complete reaction with n-butylamine” value in series [4] is 6 h.
